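Protocol summary: plate cells (96-well), add compound at 5 concentrations, incubate 48 h, interpolate endpoints linearly. Definition used: TGI = concentration required for complete inhibition of growth.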

Assay in all cases: inhibition of tumour cell growth, NCI panel, 48 h
Experiment [1] concerns SW-620 colon.
Experiment [2] has as its system TK-10 renal.
Experiment [3] has as its system MCF7 breast.
Experiment [4] has as its system MALME-3M melanoma.
For experiment [5], the system named is EKVX NSCLC.
Experiment [6] deals with MOLT-4 leukemia.
In experiment [7] the test system is HCC-2998 colon.
Experiment [8] has as its system SK-OV-3 ovarian.
The subject of experiment [9] is SN12C renal.
The test system of experiment [10] is HS 578T breast.
Experiment [11] relates to SR leukemia.
Experiment [12] relates to DU-145 prostate.
Experiment [13] has as its system K-562 leukemia.
Experiment [14] deals with U251 CNS.
The subject of experiment [15] is HOP-92 NSCLC.

For the compound `CCCCN=NNc1cn(C2OC(CO)C(O)C2O)c(=O)[nH]c1=O` (stereo unspecified), the TGI in experiment [1], in experiment [2], in [3], in experiment [4], in experiment [5] and in experiment [6] was more than 100 µM throughout. The TGI in experiment [7], in [8], in experiment [9], in [10], in [11] and in experiment [12] was more than 100 µM in each case.

As to `CSc1c(C#N)c(=O)n(N)c2c1c(C)nn2-c1ccccc1`, the TGI in experiment [1] is more than 100 µM; in experiment [2] it was more than 100 µM; in experiment [3], 39.2 µM; in [4], 70.2 µM; in experiment [5], 78 µM; in experiment [13], 87 µM. Also, the TGI in [14] was more than 100 µM; in [6], 85.1 µM; in [7] it was more than 100 µM; in [8] it was 93.8 µM; in experiment [9] it was more than 100 µM; in experiment [10], more than 100 µM. The TGI is 71.8 µM in [11] and more than 100 µM in experiment [12].

On to `C=C(C)C1CC[C@@](C)(O)[C@H](C#N)C1` (stereo partly specified), for which the TGI in [1], in experiment [2], in experiment [3], in [4], in experiment [5] and in [13] was more than 100 µM throughout. In addition, the TGI in experiment [14], in experiment [6], in experiment [7], in experiment [8], in experiment [9] and in experiment [10] was more than 100 µM throughout. In addition, the TGI in experiment [11] and in experiment [12] was more than 100 µM in each case.

For `C[C@@H]1S[C@H](c2c(F)cccc2Cl)n2c1nc1ccccc12`, the TGI was 27.2 µM in experiment [1]; more than 100 µM in experiment [2]; 81.8 µM in experiment [3]; 30.6 µM in experiment [4]; 56 µM in [5]; more than 100 µM in [13]. Further, the TGI in experiment [14] worked out at 22.7 µM; in [6], 32 µM; in experiment [7], 26.5 µM; in [8], 55.9 µM; in experiment [9], 29 µM; in experiment [10] it was 41.6 µM. Moreover, the TGI in [11] was 67.7 µM; in experiment [12], more than 100 µM.

For the compound `COc1cc(S(=O)(=O)Nc2ccc(-c3csc(N4C(=O)C(C)SC4c4cccs4)n3)cc2)ccc1Cl` (stereo unspecified), the TGI in experiment [1], in experiment [15], in experiment [3], in experiment [4], in experiment [5] and in experiment [13] was more than 100 µM throughout. Moreover, the TGI was more than 100 µM in experiment [6]; more than 100 µM in experiment [8]; more than 100 µM in [9]; more than 100 µM in experiment [10]; more than 100 µM in experiment [11]; 53.1 µM in experiment [12].

Take `COc1ccc(-c2sc(Br)c3c2C(=O)C2OC(=O)NC32)cc1OC` (stereo unspecified): the TGI in experiment [1], in experiment [15], in [2], in [3], in experiment [4] and in experiment [5] was more than 100 µM throughout. Besides, the TGI in experiment [13], in [14], in experiment [6], in [8], in experiment [9] and in [10] was more than 100 µM throughout. For the same compound, the TGI in experiment [11] and in [12] was more than 100 µM in each case.

Take `C=C(COCO)C(C)=O`: the TGI was 11.1 µM in experiment [1]; 48.9 µM in [15]; 26.9 µM in [2]; 34.5 µM in experiment [3]; 23.5 µM in [4]; 46.9 µM in experiment [5]. For the same compound, the TGI in [13] was more than 27 µM; in experiment [14] it was 47.2 µM; in experiment [6] it was 6.08 µM; in experiment [7], more than 58.4 µM; in experiment [8], more than 100 µM; in experiment [9], 33 µM. Besides, the TGI in experiment [10] was 62.7 µM; in [12], more than 65.8 µM.

As for `CC(O)CNC(=O)Nc1c(C(F)(F)F)cc(-c2ccccc2)[nH]c1=O` (stereo unspecified), the TGI in experiment [1], in experiment [15], in experiment [2], in experiment [3], in [4] and in experiment [5] was more than 100 µM each time. Further, the TGI in experiment [13], in [14], in experiment [6], in experiment [7], in experiment [8] and in experiment [9] was more than 100 µM throughout. The TGI in experiment [10] and in experiment [12] was more than 100 µM each time.

For the compound `CCO/C(O)=C(/C(=N)N1CCOCC1)C(=O)NC(C)C`, the TGI in experiment [1], in [15], in experiment [2], in experiment [3], in experiment [4] and in experiment [5] was more than 100 µM in each case. The TGI in experiment [13], in experiment [14], in experiment [6], in experiment [7], in experiment [8] and in [9] was more than 100 µM in each case. For the same compound, the TGI in experiment [10] and in experiment [12] was more than 100 µM throughout.

With `COc1ccccc1-n1nnc2c(N)nc(N)nc21`, the TGI in experiment [1], in experiment [15], in experiment [2], in experiment [3], in [4] and in experiment [5] was more than 100 µM throughout. Besides, the TGI in experiment [13], in experiment [14], in experiment [6], in experiment [8], in [9] and in [10] was more than 100 µM in each case. The TGI in [11] and in [12] was more than 100 µM each time.

Values taken from PubChem BioAssay (NCI).
